Here are results for two molecules from patent publication US20150315218A1, “SALTS OF PRODRUGS OF PIPERAZINE AND SUBSTITUTED PIPERIDINE ANTIVIRAL AGENTS” (Bristol-Myers Squibb Company, priority 2004, published 2015).

“Also recorded” adds a separate entry of the source. Where a name gives a salt, the structure may show the parent alone. Read-outs that look alike come from different tables or passages of the source. Where only a bound is given, the exact number is not on record here.

Series [1] in a line: Stability (hydrolysis) of prodrug in fresh serum (rat). The settings on record: for Ibb: Ibb in fresh rat serum, 37° C., n = 2; for Iab / IVa Formed: Rat Serum.
Protocol: (§1) The stability of Iab was studied in fresh blood and serum from rat, dog, monkey and human (n=2). The blood was collected in vacutainers containing K2EDTA (Becton Dickinson, Franklin Lakes, N.J.). The serum was collected in vacutainers containing no anticoagulant. Iab was incubated at a starting concentration of approximately 10 μM for 60-90 min at 37° C. Serial samples were taken at the pre-determined times. Aliquots of blood samples (200 μL) were first mixed with 100 μL of water followed by 400 μL of acetonitrile. The serum samples (50 μL) were added into microtainers containing K2EDTA (Becton Dickinson, Franklin Lakes, N.J.) followed by the addition of 100 μL of acetonitrile. The supernatant was analyzed for both Iab and IVa by LC/MS/MS. The stability of Ibb was studied in fresh blood and serum from rat, dog, monkey and human (n=2). The blood was collected in vacutainers containing K2EDTA (Becton Dickinson, Franklin Lakes, N.J.). The serum was collected in vacutainers containing no anticoagulant. Ibb was incubated at a starting concentration of approximately 15 μM for 90 min at 37° C. Serial samples were taken at the pre-determined times. Aliquots of blood samples (200 μL) were first mixed with 100 μL of water followed by 400 μL of acetonitrile. The serum samples (50 μL) were added into microtainers containing K2EDTA (Becton Dickinson, Franklin Lakes, N.J.) followed by the addition of 100 μL of acetonitrile. […] The stability of Icb was studied in fresh blood and serum from rat, dog, monkey and human (n=2). The blood was collected in vacutainers containing K2EDTA (Becton Dickinson, Franklin Lakes, N.J.). The serum was collected in vacutainers containing no anticoagulant. Icb was incubated at a starting concentration of approximately 10 μM for 90 min at 37° C. Serial samples were taken at the pre-determined times. Aliquots of blood samples (200 μL) were first mixed with 100 μL of water followed by 400 μL of acetonitrile. The serum samples (50 μL) were added into microtainers containing K2EDTA (Becton Dickinson, Franklin Lakes, N.J.) followed by the addition of 100 μL of acetonitrile.
Series [2] in a line: Aqueous / crystalline solubility. The settings on record: aqueous solution.
Series [3] addresses T1, human placental alkaline phosphatase (ALP) (Homo sapiens, UniProt P05187).
T1 construct: To study the hydrolysis of lab in a purified form of human ALP, Iab was incubated in human placental ALP solutions; host or cells: human placenta (inferred from the name and from 'ALP derived from humans')
As to the kind of experiment: Hydrolysis of prodrug in human placental ALP solutions. It counts as in vitro ADME. The following applies: human placental ALP solution, 37°C, 120 min, read-out: t1/2 (min) of prodrug disappearance. The procedure: Solid human placental ALP was obtained from Sigma (P-3895, St. Louis, Mo.). […] Solutions of 100 and 10 units/L were obtained by serial dilution. Iab was incubated in the 10, 100 and 1000 units/L solutions (n=2) at 37° C. for 2 hr. The starting concentration of Iab in the incubation was 10 μM. Aliquots of 100 μL samples were taken at pre-determined times and added into K2EDTA microtainers followed by the addition of 200 μL of acetonitrile.
Solid human placental ALP was obtained from Sigma (P-3895, St. Louis, Mo.). […] Solutions of 100 and 10 units/L were obtained by serial dilution. Ibb was incubated in the 10, 100 and 1000 units/L solutions (n=2) at 37° C. for 2 hr. The starting concentration of Ibb in the incubation was 10 μM. Aliquots of 100 μL samples were taken at pre-determined times and added into K2EDTA microtainers followed by the addition of 200 μL of acetonitrile.
Solid human placental ALP was obtained from Sigma (P-3895, St. Louis, Mo.). […] Solutions of 100 and 10 units/L were obtained by serial dilution. Icb was incubated in the 10, 100 and 1000 units/L solutions (n=2) at 37° C. for 2 hr. The starting concentration of Icb in the incubation was 10 μM. Aliquots of 100 μL samples were taken at pre-determined times and added into K2EDTA microtainers followed by the addition of 200 μL of acetonitrile. The supernatant was analyzed for both Icb and IVe by LC/MS/MS.

For series [4], the system named is human hepatocytes. In words: Hydrolysis of prodrug in hepatocytes (human). It counts as in vitro ADME. The following applies: human hepatocytes, qualitative. The procedure: The in vitro intrinsic clearance of Ibb in hepatocytes (Clint) was calculated as follows: Clint(μL/min/million cells)=Rate/CE where Rate is the rate of metabolism in hepatocytes (pmol/min/million cells), and CE is the concentration of Ibb in the incubation. The in vitro intrinsic clearance of Icb in hepatocytes (Clint) was calculated as follows: Clint(μL/min/million cells)=Rate/CE where Rate is the rate of metabolism in hepatocytes (pmol/min/million cells), and CE is the concentration of Icb in the incubation.

Series [5] is described as follows: Stability of prodrug in fresh EDTA blood (human). The settings on record: for Ibb: Ibb in fresh human EDTA blood, 37° C., n = 2; for Iab / IVa Formed: Human EDTA blood.
Protocol: as §1
A short description of series [6]: Solution and solid stability. It counts as physicochemical.
A short description of series [7]: Effect of food on oral absorption of IVa in dogs after Iab or IVa capsules. In kind it is in vivo, dog. The procedure:
To study the effect of food on the oral absorption of IVa after administration of Iab and IVa, these two compounds were administered in capsules as solid to a group of three dogs in a cross-over fashion under overnight fasting and fed conditions. There was a one-week washout period between each study. Iab was administered at 200 mg per dog (ca 20 mg/kg) of IVa equivalent; IVa was administered in a clinical capsule formulation at 200 mg per dog (ca 20 mg/kg). In the studies where the dogs were fed, the following meal was prepared: 2 slices of bacon, 2 eggs, 2 pieces of toast with butter and jelly, 4 oz. hash browns and 8 oz. of whole milk. After homogenization using a laboratory blender, the meal was equally divided into five portions and kept frozen. Before the study, the meals were thawed and each dog was fed one portion.

The mark [8] stands for this setting: pH 7.5, ALP Activity 10 Units/L.
[9] abbreviates: pH 7.5, ALP Activity 100 Units/L.
Where [10] appears, read: pH 7.5, ALP Activity 1000 Units/L.

T1 sequence (P05187 23-506 limits assumed): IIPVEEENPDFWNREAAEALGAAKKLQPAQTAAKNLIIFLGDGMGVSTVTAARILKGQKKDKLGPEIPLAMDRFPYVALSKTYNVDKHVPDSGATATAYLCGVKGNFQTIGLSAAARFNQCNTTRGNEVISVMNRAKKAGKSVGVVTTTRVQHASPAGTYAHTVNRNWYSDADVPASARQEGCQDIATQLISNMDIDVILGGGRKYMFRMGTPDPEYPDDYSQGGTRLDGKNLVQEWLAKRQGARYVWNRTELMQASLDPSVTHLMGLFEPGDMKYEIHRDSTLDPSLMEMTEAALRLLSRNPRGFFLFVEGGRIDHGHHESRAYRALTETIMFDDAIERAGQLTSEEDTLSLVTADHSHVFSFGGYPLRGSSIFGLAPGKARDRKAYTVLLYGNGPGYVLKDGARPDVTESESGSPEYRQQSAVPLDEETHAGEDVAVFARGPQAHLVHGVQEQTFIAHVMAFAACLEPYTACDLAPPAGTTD

Regarding `O=C(C(=O)N1CCN(C(=O)c2ccccc2)CC1)c1cn(COP(=O)(O)O)c2c(-n3ccnn3)ncc(F)c12` [Ibb, [3-[(4-benzoylpiperazin-1-yl)(oxo)acetyl]-4-fluoro-7-(1H-1,2,3-triazol-1-yl)-1H-pyrrolo[2,3-c]pyridin-1-yl]methyl dihydrogen phosphate, L-lysine salt (1:1)], the “Ibb” value stood at 12 µM in series [1] (0 min); 9.4 µM in series [1] (15 min); 9.2 µM in series [1] (30 min); 9.4 µM in series [1] (45 min); 9.3 µM in series [1] (60 min); 9.0 µM in series [1] (90 min). The “Ibb” value in series [5] (0 min) was found to be 16 µM; in series [5] (15 min), 15 µM; in series [5] (30 min), 16 µM; in series [5] (45 min), 16 µM; in series [5] (60 min), 16 µM; in series [5] (90 min), 18 µM. Also, the “concentration of aqueous solutions prepared for in vivo toxicology studies” value in series [2] is above 75 mg/mL. The half-life at 10 μM amounted to 198 min in series [3] (setting [8]), 16 min in series [3] (setting [9]) and 2 min in series [3] (setting [10]). In addition, in series [4], the “hydrolysis in the presence of hepatocytes” value is reported as “hydrolyzed”. Also, the “conversion of prodrug to parent in blood containing EDTA” value in series [5] (human blood, 37°C, 60 min (Iab) or 90 min (Ibb, Icb)) is below 2%. Moreover, the “solution and solid stabilities” value in series [6] was “acceptable solution and solid stabilities”.

On to `COc1cnc(OC)c2c1c(C(=O)C(=O)N1CCN(C(=O)c3ccccc3)CC1)cn2COP(=O)(O)O` [Iab, {3-[(4-benzoylpiperazin-1-yl)(oxo)acetyl]-4,7-dimethoxy-1H-pyrrolo[2,3-c]pyridin-1-yl}methyl dihydrogen phosphate, L-lysine salt (1:1)], for which the “AUC of IVa from Iab capsules (fasted dogs) relative to fed dogs given IVa clinical capsule” value in series [7] (200 mg/dog of IVa equivalent) was found to be 4 times. In addition, the “Cmax of IVa from Iab capsules (fasted dogs) relative to fed dogs given IVa clinical capsule” value in series [7] (200 mg/dog of IVa equivalent) is recorded as 6 times. For the same molecule, the “difference in AUC and Cmax of IVa between fasted and fed dogs” value in series [7] (dogs receiving Iab capsules) is on record as “No significant differences; also recorded: not significantly different”. The “Cmax of IVa from Iab capsules relative to IVa clinical capsule in fasted dogs” value in series [7] (fasted dogs, 200 mg/dog of IVa equivalent) is on record as 58 times. Moreover, the “Iab / IVa Formed” value in series [1] (37°C, 0 min) is 6.8 µM; in series [1] (15 min), 5.8 µM; in series [1] (30 min), 5.4 µM; in series [1] (45 min), 4.9 µM; in series [1] (60 min), 4.3 µM; in series [1] (90 min), 3.3 µM. For the same molecule, the “Iab / IVa Formed” value in series [5] (0 min) was 11 µM; in series [5] (15 min) it was 11 µM; in series [5] (30 min) it was 7.1 µM; in series [5] (45 min) it was 9.8 µM; in series [5] (60 min) it was 9.8 µM. For the same molecule, the “concentration of aqueous solutions prepared for in vivo toxicology studies” value in series [2] is on record as above 100 mg/mL. The half-life at 10 μM in series [3] (setting [8]) is 186 min; in series [3] (setting [9]), 14 min; in series [3] (setting [10]), 1.4 min. Besides, the “hydrolysis in the presence of hepatocytes” value in series [4] was “hydrolyzed”. In series [6], the “solution and solid stabilities” value was “acceptable solution and solid stabilities”.
